Here are results for 13 molecules from patent US20100292231A1, “Indazole Compounds for Treating Inflammatory Disorders, Demyelinating Disorders and Cancers” (priority 2007, published 2010).

The target of one assay is T1, FLT3 (Homo sapiens, UniProt P36888).
T1 construct: purchased Invitrogen (SelectScreen platform)
T1 sequence (P36888 27-993): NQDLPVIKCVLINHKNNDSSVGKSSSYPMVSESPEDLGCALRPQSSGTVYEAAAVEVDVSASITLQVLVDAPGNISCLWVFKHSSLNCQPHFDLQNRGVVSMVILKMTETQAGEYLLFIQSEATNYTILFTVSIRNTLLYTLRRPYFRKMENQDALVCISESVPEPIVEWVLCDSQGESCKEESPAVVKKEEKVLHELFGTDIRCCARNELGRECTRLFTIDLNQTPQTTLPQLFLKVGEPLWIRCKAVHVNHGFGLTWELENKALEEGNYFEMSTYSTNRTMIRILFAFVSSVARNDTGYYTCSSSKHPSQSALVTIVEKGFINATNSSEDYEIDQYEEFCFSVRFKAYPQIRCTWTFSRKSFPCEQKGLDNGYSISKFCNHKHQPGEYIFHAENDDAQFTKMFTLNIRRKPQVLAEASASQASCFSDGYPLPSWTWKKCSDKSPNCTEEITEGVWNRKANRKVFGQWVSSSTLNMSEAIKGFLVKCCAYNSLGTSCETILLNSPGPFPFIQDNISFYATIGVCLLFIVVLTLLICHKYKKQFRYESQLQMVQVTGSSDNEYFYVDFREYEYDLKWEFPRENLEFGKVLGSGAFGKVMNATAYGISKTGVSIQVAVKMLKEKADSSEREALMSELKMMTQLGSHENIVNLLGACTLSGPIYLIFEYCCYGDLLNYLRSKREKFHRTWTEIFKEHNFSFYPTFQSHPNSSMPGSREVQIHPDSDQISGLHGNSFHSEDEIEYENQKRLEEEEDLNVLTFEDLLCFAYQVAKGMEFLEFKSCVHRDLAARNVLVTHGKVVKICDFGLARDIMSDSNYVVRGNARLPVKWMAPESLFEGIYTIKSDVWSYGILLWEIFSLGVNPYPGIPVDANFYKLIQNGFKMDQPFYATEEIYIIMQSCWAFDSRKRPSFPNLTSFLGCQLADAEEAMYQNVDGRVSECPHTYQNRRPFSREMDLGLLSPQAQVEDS
The assay is described as follows: SelectScreen FLT3 kinase dose response assay. The format is biochemical. As to conditions: ATP 100 micromolar; for inhibition at 1 µM: read-out: FLT3 Inhibition E1000 (percent inhibition at 1000 nMolar); for EC50: dose response, 4 parameter Hill equation, read-out: FLT3 Inhibition EC50. Here is the method:
The terms “IC50” and “EC50” are used interchangeably. As used herein, “EC50” refers to nMolar concentration at median percent inhibition determined by dose respose (DR) assay. As used herein, the term “E1000” refers to percent inhibition at 1000 nMolar determined by assay.
Testing of the compounds described in this invention was carried out using the SelectScreen™ platform from Invitrogen, Inc. (Carlsbad. Calif., USA) and the details of its performance are readily viewed via the web by linking to: http://www.invitrogen.com/downloads/SelectScrn_Brochure.pdf.
Briefly, the approach is based on treating each specific kinase with a unique substrate and optical reporter system in the presence of ATP at 100 micromolar. In controls, the substrate is phosphorylated and a baseline optimal response is recorded.
The compounds were then re-tested by adding graded amounts of putative inhibitor which were added in 5 separate increments to generate a dose response curve. The latter is obtained by fitting to a 4 parameter Hill equation, a sigmoid saturation equation.
For the compounds of this invention, the experimental conditions were as follows. The 2× FLT3/Tyr 02 peptide mixture was prepared in 50 mM HEPES pH 7.5, 0.01 BRIJ-35, 10 mM MgCl2, 1 mM EGTA. The final 10 uL kinase reaction consists of 0.6-76.0 ng FLT3 and 2 uM Tyr 02 peptide in 50 mM HEPES pH 7.5, 0.01% BRIJ-35, 10 mM MgCl2, 1 mM EGTA. After 1 hour kinase reaction incubation, 5 uL of a 1:64 dilution of development reagent A was added.

The next assay addresses T2, MLCK (Homo sapiens, UniProt Q9H1R3).
T2 construct: purchased Invitrogen (SelectScreen platform)
The assay is described as follows: Kinase EC50 (10 pt curve or estimate, ATP Kmapp). The format is biochemical. As to conditions: from 10 pt curve or estimate based on 1 μm inhibition assay at ATP Kmapp.

Assay [1] relates to Raw264.7 (murine macrophage-like cells). The assay is described as follows: sulforhodamine B (SRB) cytotoxicity assay. It counts as cell-based. The conditions noted are these: Mus musculus, Table 5 summary, read-out: IC50 SRB assay Raw 264.7. Here is the method: (§1) The cytotoxic activity of compounds listed in Table 5 was determined with a sulforhodamine B (SRB) assay on panel of cell lines, including MdaMb231 (breast cancer), MV4-11 (leukemia), PC-3 (prostate cancer), U266B1 (multiple myeloma), C7 macrophages, and Raw264.7 (murine macrophage-like cells).
(§2) Cells growing in relevant media were seeded in a 96 well plate and left to adhere overnight. Cells were plated at appropriate cell densities: • MV4-11: 20.000 cells/well • Mda-Mb231: 6000 cells/well • C7: 10.000 cells/well • Raw264.7: 2000 cells/well • PC-3: 6000 cells/well • U266B1: 40.000 cells/well.
(§3) Cells were incubated before the compounds were added the next day to a top concentration of 100 μM and serially diluted 1 in 5 across the plate. After a 3 day incubation period (6 days for C7 and Raw264.7) cells were fixed with trichloroacetic acid (TCA) to end concentration of 10% for adherent cells and 16% end concentration for suspension cells for 1 hr at 4° C. before washing. Cells were stained with 0.4% sulforhodamine-B dye (SRB) in 1% acetic acid for 30 minutes and washed in 1% acetic acid. To solubilize the dye 100 μl 10 mM Tris, pH 10.5 was added and the absorbance was read at 564 nm. IC50 values were generated using the SoftMAX Pro™ software. The data is presented below in Tables 6 through 11.

For another assay, the system named is MdaMb231 cells. In words: BrdU cell proliferation assay. It counts as cell-based. As to conditions: for concentration at which cell proliferation was inhibited (BrdU): MdaMb231 cells, 24 hour treatment; for BrdU (Inhibition of cell proliferation): Table 5 summary, concentration inhibiting proliferation. How it is done: Representative compounds of the present invention were evaluated in a BrdU assay to determine their effect on the cell proliferation of MdaMb231 cells.
The effect of the inventive compounds on cell proliferation was analyzed by detecting 5-Bromo-2′-deoxy-uridine (BrdU) incorporation after 24 hour treatment with the test compounds. The cell proliferation ELISA BrdU kit (Roche™ cat. No. 11 647 229 001) was used according to manufacturer's protocol. Cells were plated at 10.000 cells/well. The next day compounds were added in concentration range of 2.5, 5, 10 and 20 μM.
After 24 hours, 12 μl/well BrdU labelling solution was added and cells were incubated for 6 hours at 37° C./5% CO2 before labeling solution was removed. Cells were fixed with 200 μl FixDenat™ solution for 30 minutes. After removal of fixative 100 μl BrdU-peroxidase working solution was added and cells were incubated for 90 minutes. Cells were subsequently washed three times. 100 μl substrate solution was added and after 30 minutes the absorbance was read at 370 nm.

Assay [2] relates to MdaMb231 (breast cancer) cell line. In words: sulforhodamine B (SRB) cytotoxicity assay. The format is cell-based. As to conditions: Homo sapiens. How it is done:
as §1, §2, §3

[3] abbreviates: MDA-MB-231, 72 h, 100 μM highest concentration, diluted 1:5 (two series), 3 day incubation, read-out: IC50 Measured Against MdaMb231 Cell Line.
The mark [4] stands for this setting: MDA-MB-231, Table 5 summary, read-out: IC50 SRB assay Mda MB-231.

Read-outs that look alike come from different tables or passages of the source. Bounds are passed on as bounds.

Regarding `CN(C)CCCCCNc1ccc2ncn3c4ccc5[nH]ncc5c4c(=O)c1c23` [(III)], the inhibition at 1 µM at FLT3 (1000 nMolar compound) worked out at 100%. For the same molecule, the EC50 at FLT3 worked out at 4 nM.
For `CN(C)c1ccc2ncn3c4ccc5[nH]ncc5c4c(=O)c1c23` [(IX)] the same measures were 98% and 9 nM.
On to `CCN(CC)c1ccc2ncn3c4ccc5[nH]ncc5c4c(=O)c1c23` [(VI)], for which, on FLT3 (1000 nMolar compound), the inhibition at 1 µM was found to be 100%. On FLT3, the EC50 is 5 nM.
For `CNc1ccc2ncn3c4ccc5[nH]ncc5c4c(=O)c1c23` [(VII)] the same measures were 99% and 5 nM.
For `CCN(CC)CCNc1ccc2ncn3c4ccc5[nH]ncc5c4c(=O)c1c23` [(VIII)] the same measures were 87% and 69 nM.
With `O=c1c2c(NCCCN3CCOCC3)ccc3ncn(c4ccc5[nH]ncc5c14)c32` [(X)], the inhibition at 1 µM on FLT3 (1000 nMolar compound) was 98%. In addition, the results for the EC50 on FLT3 and on MLCK were 11 nM and 52 nM, respectively. The IC50 in assay [1] worked out at 2.7 nM. In addition, in the assay with MdaMb231 cells, the “concentration at which cell proliferation was inhibited (BrdU)” value stood at 20 µM. In addition, in the assay with MdaMb231 cells, the “BrdU (Inhibition of cell proliferation)” value worked out at 20 μm.
Regarding `CN(C)CCNc1ccc2ncn3c4ccc5[nH]ncc5c4c(=O)c1c23` [(XII)], at FLT3 (1000 nMolar compound), the inhibition at 1 µM stood at 98%. In addition, the EC50 was 11 nM on FLT3 and 18 nM at MLCK. Besides, the IC50 is less than 0.1 nM in assay [1], 7400 nM in assay [2] (setting [3]) and 7400 nM in assay [2] (setting [4]). In addition, the “concentration at which cell proliferation was inhibited (BrdU)” value in the assay with MdaMb231 cells stood at 2.5 µM. For the same molecule, the “BrdU (Inhibition of cell proliferation)” value with MdaMb231 cells came to 2.5 μm.
Consider `CC(CCN1CCOCC1)Nc1ccc2ncn3c4ccc5[nH]ncc5c4c(=O)c1c23` (stereo not drawn) [(XVI)], for which, at FLT3 (1000 nMolar compound), the “FLT3 Inhibition E1000 (percent inhibition at 1000 nMolar)” value amounted to 98% and the inhibition at 1 µM turned out to be 99%. The EC50 at MLCK was 53 nM. For the same molecule, the IC50 in assay [1] stood at 25.7 nM. The IC50 in assay [2] (setting [3]) was determined as 5100 nM. For the same molecule, the IC50 in assay [2] (setting [4]) was 5100 nM. In addition, in the assay with MdaMb231 cells, the “concentration at which cell proliferation was inhibited (BrdU)” value stood at 20 µM and the “BrdU (Inhibition of cell proliferation)” value was found to be 5 μm.
For `CN1CCN(CCCNc2ccc3ncn4c5ccc6[nH]ncc6c5c(=O)c2c34)CC1` [(XVII)], the inhibition at 1 µM on FLT3 (1000 nMolar compound) was determined as 99%. In addition, the concentration for a half-maximal effect (EC50) at FLT3 was 8 nM; at MLCK, 9 nM. For the same molecule, the half-inhibitory concentration (IC50) is 2.6 nM in assay [1], 45300 nM in assay [2] (setting [3]) and 45300 nM in assay [2] (setting [4]). The “BrdU (Inhibition of cell proliferation)” value in the assay with MdaMb231 cells was greater than 20 μm.
Consider `CN(C)CCCNc1ccc2ncn3c4ccc5[nH]ncc5c4c(=O)c1c23` [Compound (IV)], for which the inhibition at 1 µM on FLT3 (1000 nMolar compound) was determined as 98%. The EC50 at FLT3 is 14 nM; at MLCK, 21 nM. For the same molecule, the IC50 in assay [1] is less than 0.1 nM; in assay [2] (setting [3]), 5400 nM; in assay [2] (setting [4]), 5400 nM. In addition, in the assay with MdaMb231 cells, the “concentration at which cell proliferation was inhibited (BrdU)” value was 2.5 µM. In the assay on MdaMb231 cells, the “BrdU (Inhibition of cell proliferation)” value is recorded as 2.5 μm.
As for `O=c1c2c(NCCN3CCOCC3)ccc3ncn(c4ccc5[nH]ncc5c14)c32` [Compound (V)], the inhibition at 1 µM on FLT3 (1000 nMolar compound) worked out at 95%. The EC50 at FLT3 came out at 30 nM.
For `CCN(CC)CCCNc1ccc2ncn3c4ccc5[nH]ncc5c4c(=O)c1c23` [Compound (XV)], the inhibition at 1 µM on FLT3 (1000 nMolar compound) was 99%. Besides, the EC50 is 11 nM on FLT3 and 8 nM at MLCK. Moreover, the IC50 in assay [1] is less than 0.1 nM; in assay [2] (setting [3]), 4000 nM; in assay [2] (setting [4]), 4000 nM. The “concentration at which cell proliferation was inhibited (BrdU)” value with MdaMb231 cells was found to be 20 µM.
Turning to `CCN(CC)CCNc1ccc2ncn3c4ccc(O)cc4c(=O)c1c23` [Symadex, 5-(2-(diethylamino)ethylamino)-8-hydroxy-6H-imidazo[4,5,1-de]acridin-6-one, reference compound], the inhibition at 1 µM on FLT3 (1000 nMolar compound) turned out to be 96%. Moreover, the EC50 on FLT3 was 24 nM; at MLCK, 95 nM. For the same molecule, the IC50 in assay [2] (setting [4]) is 6800 nM.
